Columns and labels:
Details in all cases: Compound concentration 1.0 uM
[1] = biological target: Cyclin-dependent kinase-like 1 (Homo sapiens) (UniProt Q00532)
[2] = biological target: Receptor tyrosine-protein kinase erbB-4 (Homo sapiens) (UniProt Q15303)
[3] = biological target: T1, Tyrosine-protein kinase JAK3 (Homo sapiens) (UniProt P52333)
T1 sequence (whole entry): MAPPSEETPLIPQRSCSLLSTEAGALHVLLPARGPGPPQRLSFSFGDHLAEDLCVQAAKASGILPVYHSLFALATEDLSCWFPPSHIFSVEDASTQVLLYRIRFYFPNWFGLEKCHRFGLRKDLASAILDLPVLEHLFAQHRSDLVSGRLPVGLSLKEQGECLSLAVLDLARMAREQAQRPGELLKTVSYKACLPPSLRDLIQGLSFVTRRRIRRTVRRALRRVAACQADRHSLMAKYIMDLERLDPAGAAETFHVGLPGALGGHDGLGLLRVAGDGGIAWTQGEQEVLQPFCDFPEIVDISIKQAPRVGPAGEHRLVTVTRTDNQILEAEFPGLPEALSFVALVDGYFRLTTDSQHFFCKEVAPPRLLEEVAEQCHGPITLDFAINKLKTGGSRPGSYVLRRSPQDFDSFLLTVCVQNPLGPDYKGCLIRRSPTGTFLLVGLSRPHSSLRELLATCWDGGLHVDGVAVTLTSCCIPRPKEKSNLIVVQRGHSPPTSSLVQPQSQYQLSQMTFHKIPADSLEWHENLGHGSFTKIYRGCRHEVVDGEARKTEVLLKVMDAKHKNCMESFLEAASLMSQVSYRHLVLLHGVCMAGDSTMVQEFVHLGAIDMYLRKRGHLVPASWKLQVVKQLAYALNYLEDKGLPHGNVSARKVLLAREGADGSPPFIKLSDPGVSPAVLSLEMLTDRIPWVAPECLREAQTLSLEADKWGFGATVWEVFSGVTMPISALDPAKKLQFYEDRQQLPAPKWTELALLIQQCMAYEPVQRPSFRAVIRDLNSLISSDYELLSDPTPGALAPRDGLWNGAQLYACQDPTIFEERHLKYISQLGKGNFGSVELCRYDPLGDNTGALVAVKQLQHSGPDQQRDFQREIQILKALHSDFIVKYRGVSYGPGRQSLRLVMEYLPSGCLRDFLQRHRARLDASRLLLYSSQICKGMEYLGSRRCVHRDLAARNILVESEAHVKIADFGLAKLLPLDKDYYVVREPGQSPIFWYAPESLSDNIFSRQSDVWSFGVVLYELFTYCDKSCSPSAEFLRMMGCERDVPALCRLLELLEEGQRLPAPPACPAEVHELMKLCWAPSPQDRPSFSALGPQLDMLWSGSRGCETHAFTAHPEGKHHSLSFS

[4] = biological target: Leucine-rich repeat serine/threonine-protein kinase 2 (Homo sapiens) (UniProt Q5S007)
[5] = biological target: T2, Tyrosine-protein kinase Mer (Homo sapiens) (UniProt Q12866)
T2 sequence (whole entry): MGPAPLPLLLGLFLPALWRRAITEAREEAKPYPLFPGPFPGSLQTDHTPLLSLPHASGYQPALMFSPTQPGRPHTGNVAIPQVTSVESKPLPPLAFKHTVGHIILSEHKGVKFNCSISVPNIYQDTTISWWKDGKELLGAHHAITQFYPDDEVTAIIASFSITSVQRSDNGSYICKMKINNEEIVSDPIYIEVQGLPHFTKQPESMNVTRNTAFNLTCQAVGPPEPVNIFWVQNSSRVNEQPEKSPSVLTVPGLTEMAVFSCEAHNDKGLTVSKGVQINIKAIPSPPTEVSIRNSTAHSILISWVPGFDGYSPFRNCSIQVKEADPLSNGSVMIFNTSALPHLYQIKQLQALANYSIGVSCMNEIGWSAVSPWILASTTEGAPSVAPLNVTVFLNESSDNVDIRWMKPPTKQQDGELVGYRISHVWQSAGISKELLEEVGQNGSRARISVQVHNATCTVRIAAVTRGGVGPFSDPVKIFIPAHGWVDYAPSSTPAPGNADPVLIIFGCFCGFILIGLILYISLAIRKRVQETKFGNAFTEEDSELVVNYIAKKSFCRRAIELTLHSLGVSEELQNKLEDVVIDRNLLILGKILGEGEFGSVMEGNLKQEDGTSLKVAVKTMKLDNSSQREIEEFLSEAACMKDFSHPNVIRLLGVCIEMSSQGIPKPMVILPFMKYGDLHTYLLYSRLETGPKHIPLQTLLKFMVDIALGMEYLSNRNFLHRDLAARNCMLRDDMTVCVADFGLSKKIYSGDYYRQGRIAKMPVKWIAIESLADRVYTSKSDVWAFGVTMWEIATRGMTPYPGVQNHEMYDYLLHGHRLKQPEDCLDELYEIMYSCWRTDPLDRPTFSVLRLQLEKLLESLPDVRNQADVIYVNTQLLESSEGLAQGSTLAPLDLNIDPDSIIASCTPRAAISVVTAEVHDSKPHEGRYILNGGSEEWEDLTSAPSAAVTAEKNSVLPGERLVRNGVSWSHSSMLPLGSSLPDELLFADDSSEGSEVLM

[6] = biological target: Ribosomal protein S6 kinase alpha-3 (Homo sapiens) (UniProt P51812)
[7] = biological target: Serine/threonine-protein kinase tousled-like 2 (Homo sapiens) (UniProt Q86UE8)
[8] = biological target: ATR/ATRIP (Homo sapiens) (UniProt Q13535+Q8WXE1)
[9] = biological target: Phosphatidylinositol 4-phosphate 5-kinase type-1 gamma (Homo sapiens) (UniProt O60331)

Measured: % residual kinase activity

Chain of Cyclin-dependent kinase-like 1 (Homo sapiens) (Q00532 whole entry): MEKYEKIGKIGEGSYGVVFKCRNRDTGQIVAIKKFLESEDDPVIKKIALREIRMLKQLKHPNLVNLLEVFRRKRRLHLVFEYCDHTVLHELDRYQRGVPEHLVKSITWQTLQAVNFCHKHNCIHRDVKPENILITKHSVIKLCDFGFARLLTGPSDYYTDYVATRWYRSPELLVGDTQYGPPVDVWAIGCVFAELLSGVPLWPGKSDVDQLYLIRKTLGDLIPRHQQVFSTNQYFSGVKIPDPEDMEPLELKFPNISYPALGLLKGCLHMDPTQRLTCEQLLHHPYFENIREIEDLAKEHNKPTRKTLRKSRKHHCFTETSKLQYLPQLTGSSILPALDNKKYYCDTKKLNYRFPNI
Chain of Serine/threonine-protein kinase tousled-like 2 (Homo sapiens) (Q86UE8 whole entry, looked up): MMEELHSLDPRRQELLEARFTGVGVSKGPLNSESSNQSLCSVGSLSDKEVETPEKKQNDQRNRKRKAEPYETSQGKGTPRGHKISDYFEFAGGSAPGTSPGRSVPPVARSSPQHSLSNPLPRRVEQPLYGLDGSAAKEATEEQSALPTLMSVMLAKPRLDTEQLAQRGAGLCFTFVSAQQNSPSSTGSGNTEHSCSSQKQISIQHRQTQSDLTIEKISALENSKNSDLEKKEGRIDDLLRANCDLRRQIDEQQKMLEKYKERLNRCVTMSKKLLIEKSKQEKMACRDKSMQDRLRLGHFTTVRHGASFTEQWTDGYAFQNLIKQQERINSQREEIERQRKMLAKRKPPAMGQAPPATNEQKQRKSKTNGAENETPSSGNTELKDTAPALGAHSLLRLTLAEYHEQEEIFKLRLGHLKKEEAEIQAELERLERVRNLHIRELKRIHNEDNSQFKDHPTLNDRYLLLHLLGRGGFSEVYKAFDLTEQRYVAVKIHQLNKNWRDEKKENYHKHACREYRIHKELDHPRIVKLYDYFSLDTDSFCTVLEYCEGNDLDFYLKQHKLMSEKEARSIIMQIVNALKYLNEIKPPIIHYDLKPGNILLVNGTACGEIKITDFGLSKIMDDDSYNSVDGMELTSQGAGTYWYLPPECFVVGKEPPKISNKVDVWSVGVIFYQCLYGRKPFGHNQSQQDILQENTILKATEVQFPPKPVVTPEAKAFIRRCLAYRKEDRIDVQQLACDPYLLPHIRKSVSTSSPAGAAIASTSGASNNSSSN
Chain of Leucine-rich repeat serine/threonine-protein kinase 2 (Homo sapiens) (Q5S007 whole entry): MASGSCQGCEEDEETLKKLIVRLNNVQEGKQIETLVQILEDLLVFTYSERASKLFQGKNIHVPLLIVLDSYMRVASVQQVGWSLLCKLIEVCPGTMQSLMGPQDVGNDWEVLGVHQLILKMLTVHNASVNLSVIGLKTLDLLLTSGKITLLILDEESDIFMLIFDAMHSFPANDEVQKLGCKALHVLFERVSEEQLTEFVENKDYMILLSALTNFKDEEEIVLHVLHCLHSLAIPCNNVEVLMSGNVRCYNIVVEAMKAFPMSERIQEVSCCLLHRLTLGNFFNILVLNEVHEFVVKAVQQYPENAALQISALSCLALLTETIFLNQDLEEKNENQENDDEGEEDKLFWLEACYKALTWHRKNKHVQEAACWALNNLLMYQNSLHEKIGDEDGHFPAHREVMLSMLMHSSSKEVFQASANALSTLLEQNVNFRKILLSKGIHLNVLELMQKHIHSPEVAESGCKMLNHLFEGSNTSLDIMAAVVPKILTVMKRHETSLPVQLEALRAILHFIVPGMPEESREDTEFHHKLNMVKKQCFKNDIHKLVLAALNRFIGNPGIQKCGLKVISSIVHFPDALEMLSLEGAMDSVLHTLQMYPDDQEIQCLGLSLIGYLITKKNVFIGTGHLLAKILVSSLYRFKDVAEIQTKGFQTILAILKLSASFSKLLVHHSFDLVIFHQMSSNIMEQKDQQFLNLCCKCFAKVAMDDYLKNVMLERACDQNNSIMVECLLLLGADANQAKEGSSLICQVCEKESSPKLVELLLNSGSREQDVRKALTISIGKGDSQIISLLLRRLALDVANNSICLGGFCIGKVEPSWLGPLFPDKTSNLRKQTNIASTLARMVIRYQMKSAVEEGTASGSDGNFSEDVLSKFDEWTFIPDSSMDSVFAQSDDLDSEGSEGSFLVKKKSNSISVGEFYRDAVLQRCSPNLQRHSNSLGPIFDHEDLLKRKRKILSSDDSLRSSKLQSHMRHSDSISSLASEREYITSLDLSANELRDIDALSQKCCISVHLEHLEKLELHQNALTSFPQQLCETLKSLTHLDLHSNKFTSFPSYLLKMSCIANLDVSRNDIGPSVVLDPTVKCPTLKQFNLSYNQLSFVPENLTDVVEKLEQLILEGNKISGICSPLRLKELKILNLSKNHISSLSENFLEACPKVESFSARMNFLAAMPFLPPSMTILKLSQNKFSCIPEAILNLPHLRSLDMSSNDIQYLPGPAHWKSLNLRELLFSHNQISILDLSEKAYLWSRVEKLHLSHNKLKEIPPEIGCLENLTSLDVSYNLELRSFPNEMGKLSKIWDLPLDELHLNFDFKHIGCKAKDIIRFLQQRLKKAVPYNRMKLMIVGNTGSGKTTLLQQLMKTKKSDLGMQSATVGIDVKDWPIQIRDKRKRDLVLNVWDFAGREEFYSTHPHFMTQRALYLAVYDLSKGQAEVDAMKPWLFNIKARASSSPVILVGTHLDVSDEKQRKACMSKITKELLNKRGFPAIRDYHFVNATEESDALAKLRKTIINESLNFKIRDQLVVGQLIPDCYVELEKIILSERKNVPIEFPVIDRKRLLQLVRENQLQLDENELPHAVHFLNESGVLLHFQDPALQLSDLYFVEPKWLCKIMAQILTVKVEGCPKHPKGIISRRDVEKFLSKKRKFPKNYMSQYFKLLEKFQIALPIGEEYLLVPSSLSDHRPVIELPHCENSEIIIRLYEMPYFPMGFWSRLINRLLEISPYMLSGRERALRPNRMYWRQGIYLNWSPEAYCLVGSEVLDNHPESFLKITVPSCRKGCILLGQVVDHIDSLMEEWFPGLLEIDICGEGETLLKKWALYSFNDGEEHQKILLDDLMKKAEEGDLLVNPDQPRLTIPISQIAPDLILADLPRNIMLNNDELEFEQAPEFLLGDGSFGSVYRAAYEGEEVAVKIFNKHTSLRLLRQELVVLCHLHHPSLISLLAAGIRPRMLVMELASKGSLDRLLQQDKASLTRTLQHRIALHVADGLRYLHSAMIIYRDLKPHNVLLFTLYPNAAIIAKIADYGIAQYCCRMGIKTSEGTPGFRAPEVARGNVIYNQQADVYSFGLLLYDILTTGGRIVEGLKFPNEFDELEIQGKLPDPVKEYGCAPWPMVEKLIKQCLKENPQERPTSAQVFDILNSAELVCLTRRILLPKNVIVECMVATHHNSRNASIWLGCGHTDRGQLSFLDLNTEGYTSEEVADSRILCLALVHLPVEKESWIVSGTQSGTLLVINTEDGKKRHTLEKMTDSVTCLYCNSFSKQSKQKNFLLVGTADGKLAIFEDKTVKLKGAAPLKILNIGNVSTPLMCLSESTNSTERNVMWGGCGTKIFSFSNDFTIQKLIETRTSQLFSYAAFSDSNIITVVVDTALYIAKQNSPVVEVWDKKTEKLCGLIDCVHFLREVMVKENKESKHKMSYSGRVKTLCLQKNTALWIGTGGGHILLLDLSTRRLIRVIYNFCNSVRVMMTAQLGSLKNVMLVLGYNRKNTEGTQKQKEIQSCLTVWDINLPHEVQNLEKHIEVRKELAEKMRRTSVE
Chain of Receptor tyrosine-protein kinase erbB-4 (Homo sapiens) (Q15303 whole entry): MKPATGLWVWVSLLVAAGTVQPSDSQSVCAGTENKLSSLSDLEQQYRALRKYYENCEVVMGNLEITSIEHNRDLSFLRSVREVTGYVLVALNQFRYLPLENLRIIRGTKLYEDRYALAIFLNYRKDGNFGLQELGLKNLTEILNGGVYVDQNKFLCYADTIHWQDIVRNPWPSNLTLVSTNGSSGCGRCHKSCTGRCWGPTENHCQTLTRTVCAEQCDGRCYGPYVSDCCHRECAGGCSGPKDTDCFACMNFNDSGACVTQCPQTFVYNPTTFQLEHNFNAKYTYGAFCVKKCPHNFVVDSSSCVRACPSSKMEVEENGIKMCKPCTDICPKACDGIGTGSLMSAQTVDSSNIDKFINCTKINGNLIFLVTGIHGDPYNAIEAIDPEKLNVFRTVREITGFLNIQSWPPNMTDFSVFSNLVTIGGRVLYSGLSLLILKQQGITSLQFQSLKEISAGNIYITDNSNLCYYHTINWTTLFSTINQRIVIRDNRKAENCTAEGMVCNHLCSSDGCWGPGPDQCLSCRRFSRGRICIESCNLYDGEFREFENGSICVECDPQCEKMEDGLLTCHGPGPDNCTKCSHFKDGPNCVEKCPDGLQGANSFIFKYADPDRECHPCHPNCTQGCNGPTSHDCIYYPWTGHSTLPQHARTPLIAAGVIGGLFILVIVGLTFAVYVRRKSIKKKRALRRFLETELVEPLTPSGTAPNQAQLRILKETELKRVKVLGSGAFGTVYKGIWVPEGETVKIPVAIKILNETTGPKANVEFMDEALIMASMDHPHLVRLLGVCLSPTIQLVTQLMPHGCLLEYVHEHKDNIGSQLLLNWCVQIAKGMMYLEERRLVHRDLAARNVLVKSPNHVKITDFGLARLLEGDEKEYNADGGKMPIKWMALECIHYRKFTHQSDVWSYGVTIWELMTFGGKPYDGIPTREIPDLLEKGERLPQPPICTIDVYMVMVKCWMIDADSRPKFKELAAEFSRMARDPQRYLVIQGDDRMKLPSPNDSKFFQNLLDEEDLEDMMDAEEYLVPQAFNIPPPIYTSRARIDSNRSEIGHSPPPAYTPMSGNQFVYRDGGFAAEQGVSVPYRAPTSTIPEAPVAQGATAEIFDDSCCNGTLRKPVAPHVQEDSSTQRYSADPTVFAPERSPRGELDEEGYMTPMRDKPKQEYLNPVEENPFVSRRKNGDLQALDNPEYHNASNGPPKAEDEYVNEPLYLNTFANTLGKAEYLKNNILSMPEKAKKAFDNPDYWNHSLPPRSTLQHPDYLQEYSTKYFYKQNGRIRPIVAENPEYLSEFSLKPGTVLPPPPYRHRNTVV

CN1CCN(c2cnc3c(C4CCN(C(=O)c5ccc(OC(F)(F)F)cc5N)CC4)ncnc3c2)CC1 [BAY-885]
inactive: [1] 115% | [2] 98% | [3] 118% | [4] 102% | [5] 91% | [6] 109% | [7] 98% | [8] 100% | [9] 93%
